Laboratory results taken from PubChem BioAssay AID435014 (Vanderbilt High Throughput Screening Facility, 2010).
Activity calls are given as the source filed them.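 Rule for the calls: active = dose response that fits an S-shaped curve with fit quality R squared above 0.5; inactive = the rest.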

Molecular target: G protein-activated inward rectifier potassium channel 1 (Rattus norvegicus) (UniProt P63251)
Assay: alpha2C adrenergic receptor agonists via GIRK, dose response, cell-based, thallium flux (AID 435014)
Settings: HEK293 alpha2C/GIRK1/2, thallium flux fluorescence

G protein-activated inward rectifier potassium channel 1 (Rattus norvegicus), sequence (P63251 whole entry, looked up): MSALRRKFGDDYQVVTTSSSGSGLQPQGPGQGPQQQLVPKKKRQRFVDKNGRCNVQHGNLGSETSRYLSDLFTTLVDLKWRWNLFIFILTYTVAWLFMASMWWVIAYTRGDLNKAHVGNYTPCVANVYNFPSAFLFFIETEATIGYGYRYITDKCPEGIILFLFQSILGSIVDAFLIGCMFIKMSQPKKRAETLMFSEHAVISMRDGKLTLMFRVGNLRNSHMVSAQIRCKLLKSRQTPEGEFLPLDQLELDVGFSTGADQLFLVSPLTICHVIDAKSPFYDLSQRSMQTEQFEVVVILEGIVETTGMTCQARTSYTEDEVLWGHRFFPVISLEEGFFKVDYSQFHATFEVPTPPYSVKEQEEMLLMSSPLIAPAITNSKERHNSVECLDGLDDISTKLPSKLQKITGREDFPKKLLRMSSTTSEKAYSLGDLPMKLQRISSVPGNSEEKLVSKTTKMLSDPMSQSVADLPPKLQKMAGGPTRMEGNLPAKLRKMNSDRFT

Structure (SMILES) | EC50
CC(=O)OCC[N+](C)(C)C | 134 nM
CN(C)c1ccc(/C=C/C(O)=C2/C(=O)N(C)C3(C)CC2c2ccccc2O3)cc1 (stereo not given) | 1990 nM
C[C@H]1OC[C@@H](C[N+](C)(C)C)O1 | 393 nM
Cc1c2ccncc2c(C)c2c1[nH]c1ccccc12 | 3080 nM
Brc1c(NC2=NCCN2)ccc2nccnc12 | 82 nM

Same assay, conditions: HEK293 alpha2C/GIRK1/2, thallium flux fluorescence; at 10 µM (top of the series)

Structure (SMILES) | activation
O=c1c2ccccc2sn1-c1ccc(S(=O)(=O)N2CCCCC2)cc1 | inactive
CCCOc1ccc(-c2nnn(CC(=O)Nc3cccc(C(=O)OC)c3)n2)cc1 | inactive
N/C(=N\c1nc2ccccc2o1)NC(=O)c1ccccc1NC(=O)c1ccccc1 | inactive
CC(C)(C)c1cc(-c2ccco2)c(C#N)c(SCC#N)n1 | inactive
O=S(=O)(c1ccc(S(=O)(=O)N(Cc2ccco2)Cc2ccccc2Cl)cc1)N1CCCC1 | inactive
CCN(CC)c1ccc2cc(C(=O)Nc3ccccn3)c(=O)oc2c1 | inactive
C=CCOC(=O)C1=C(C)NC(SCC(=O)Nc2ccc(C)c(Cl)c2)=C(C#N)C1c1ccco1 (stereo not given) | inactive
COc1ccccc1NC(=O)c1oc2ccccc2c1NC(=O)c1cc(OC)c(OC)c(OC)c1 | inactive
CC1(C)Cc2c(c(N3CCOCC3)nc3sc4c(NCc5ccco5)nnnc4c23)CS1 | inactive
COc1ccc(-c2noc(-c3cc(Cl)ccc3Cl)n2)cc1OC | inactive
COC(=O)c1ccc(-c2sc3nc(N4CCOCC4)c4c(c3c2N)CCCC4)o1 | inactive
COc1cccc(-c2nc(-c3ccc(NC(=O)Cc4ccccc4OC)cc3)no2)c1 | inactive
COc1cc(C(=O)Nc2cccc(-c3nc4cc(C)ccc4o3)c2)cc(OC)c1OC | inactive
COc1ccc(-c2oc3ncn4nc(COc5ccccc5)nc4c3c2-c2ccc(OC)cc2)cc1 | inactive
Cc1ccc(-c2nn(-c3ccccc3)cc2/C=C(\C#N)c2cccc(C#N)c2)o1 | inactive
CCOC(=O)c1sc(NC(=O)c2noc3c2CCCC3)c(C(=O)OCC)c1C | inactive
COc1cccc2c1C(=O)c1c(O)c3c(c(O)c1C2=O)C[C@@](O)(C(C)=O)C[C@@H]3O[C@H]1C[C@H](N)[C@H](O)[C@H](C)O1 | inactive
COC(=O)c1c(NC(=O)c2nn(C)cc2Cl)sc2c1CCCC2 | inactive
COc1ccc(CN(C(=O)CSc2nnc(-c3ccccc3F)o2)c2ccc(F)cc2)cc1 | inactive
C/C(Cl)=C/Cn1c(SCc2ccc(Cl)cc2)nc2c1c(=O)[nH]c(=O)n2C | inactive

Structure (SMILES) | activation
C[C@]12CC[C@@H]3c4ccc(OC(=O)c5ccccc5)cc4CC[C@H]3[C@@H]1CC[C@@H]2O | inactive
CCc1cc2c(=O)c(-c3ccc4c(c3)OCCO4)coc2cc1OC(=O)c1ccco1 | inactive
COC(=O)c1ccccc1NC(=O)c1noc2c1CC(C(C)(C)C)CC2 (stereo not given) | inactive
Cc1ccc(-c2cc(C(F)F)nc(N3CCC(C)CC3)n2)cc1 | inactive
CC1(C)Cc2c(C#N)c(SCCOc3ccccc3)nc(N3CCOCC3)c2CO1 | inactive
Cc1c(C(=O)NC2CCCc3ccccc32)oc2ccc(S(=O)(=O)N3CCOCC3)cc12 (stereo not given) | inactive
CCOC(=O)c1ccc(NC(=O)NC(C)C2CCCO2)cc1 (stereo not given) | inactive
COc1cccc2c1C(=O)c1c(O)c3c(c(O)c1C2=O)C[C@@](O)(C(=O)CO)C[C@@H]3O[C@H]1C[C@H](N)[C@H](O)[C@H](C)O1 | inactive
c1ccc2c(-c3nc(C4CCCCC4)no3)cc(-c3ccncc3)nc2c1 | inactive
COc1ccc2cc(CN(Cc3ccco3)C(c3nnnn3C3CCCCC3)C(C)C)c(=O)[nH]c2c1 (stereo not given) | inactive
Cc1ccc2c(C)nc(Nc3nc(CSc4nnnn4-c4ccccc4)cc(=O)[nH]3)nc2c1 | inactive
COc1ccc(-c2oc3ncn4nc(Cc5ccccc5)nc4c3c2-c2ccc(OC)cc2)cc1 | inactive
CCCSc1nc(N2CCOCC2)c2c(c1C#N)CCCC2 | inactive
C=CCn1c(=S)[nH]c2ccccc2c1=O | inactive
O=C(c1ccc(Cl)cc1)N1CCCCC(Sc2nnc(-c3ccc4c(c3)OCO4)o2)C1=O (stereo not given) | inactive
CCCCC(=O)O[C@H]1CC[C@H]2[C@@H]3CCc4cc(O)ccc4[C@H]3CC[C@]12C | inactive
Cc1ccc(SCc2c(C#N)c3ccccc3n2C)cc1 | inactive
CCOc1ccc2nc(NC(=O)CSc3nc4ccccc4c(=O)n3Cc3ccco3)sc2c1 | inactive
CSc1nc2sc3c(c2c(=O)[nH]1)CCC(C)C3 (stereo not given) | inactive
COc1ccc(-c2noc(CCC(=O)Nc3nc4ccccc4s3)n2)cc1 | inactive

Structure (SMILES) | activation
O=c1c(-c2ccc3c(c2)OCCO3)c(C(F)(F)F)oc2cc(O)cc(O)c12 | inactive
COCCOC(=O)c1c(C)oc2ccc(OC(=O)COc3c(F)c(F)c(F)c(F)c3F)cc12 | inactive
Cc1sccc1C1C(C#N)=C(N)SC(N)=C1C#N | inactive
N#Cc1ccccc1Cn1c(=O)n(Cc2ccc(C(=O)NCc3ccco3)cc2)c(=O)c2ccccc21 | inactive
O=C(NCCSCc1ccco1)Nc1cccc(Cl)c1 | inactive
CCOc1ccc(S(=O)(=O)N2CCN(c3ccc(C)cc3C)CC2)cc1 | inactive
N#CCc1nc(CSc2nc3ccccc3s2)cs1 | inactive
N#Cc1nc(COc2ccc(Br)cc2)oc1N1CCN(Cc2ccccc2)CC1 | inactive
O=C(NCc1ccco1)c1cc2cc3ccc(Cl)cc3nc2o1 | inactive
CCOc1nc(-c2ccccc2)ccc1-c1noc(-c2ccc(OC)c(OC)c2)n1 | inactive
CCC(=O)Oc1ccc(C(CC)C(CC)c2ccc(OC(=O)CC)cc2)cc1 (stereo not given) | inactive
CCSc1nnc(NC(=O)NC(CC)(C(F)(F)F)C(F)(F)F)s1 | inactive
CCOC(=O)CSc1nc2cc(C(=O)NCc3ccco3)ccc2c(=O)n1-c1ccc(F)cc1 | inactive
COC(=O)c1ccccc1NC(=O)c1ccc(-c2ccccc2F)o1 | inactive
COc1ccc(-c2nnc(SCC(=O)Nc3ccc(Cl)cc3)n2C)cc1 | inactive
CC(=O)OC(C)C[N+](C)(C)C (stereo not given) | inactive
Cc1ccc(Cl)cc1N1CCN(C(=O)CN2C(=O)c3cccc4cccc2c34)CC1 | inactive
N#CCSc1nc2c(c(=O)n1Cc1ccco1)C1(CCCC1)Cc1ccccc1-2 | inactive
O=S(=O)(c1ccccc1)N(Cc1nc(-c2ccccc2)no1)C1CCCCC1 | inactive
CCOC(=O)c1c(-c2ccc(C)o2)csc1NC(=O)COC(=O)c1cccs1 | inactive
